Measurements as given in US20150004110A1, “NOVEL ANTI-AGING AND DEPIGMENTING COSMETIC COMPOSITIONS” (DIVERCHIM, priority 2011, published 2015).

How the values were obtained:
[1] = test system: skin explants (abdominoplasty); assay: Histological assessment of the general morphology of skin explants maintained in survival; assay type: cell-based, human; conditions: 2 μg/mL in DMSO, after 9 days of survival
Description: (§1) 1. Preparation of the explants • During abdominoplasty of a person, 45 skin explants were prepared. The explants were put in BEM medium (BIO-EC's Explants Medium) for survival at 37° C. in humid atmosphere, enriched with 5% CO2.
(§2) 2. Application of the products • The solutions are prepared in DMSO from pure products, in order to obtain final concentrations of […] by incorporating an identical volume of 10 μl in each well and for each treatment. The treatment was carried out in the survival medium on days 0, 1, 2, 5 and 7.
(§3) 3. Taking samples • On D0, the 3 explants of batch TO were taken and each explant was cut in two. One part was fixed in buffered formol for observation of the general morphology. The other was frozen and stored at −80° C. • On D5 and D9, 3 explants from each batch were taken and treated in the same way.
4. […]
5. Microscopic observations • The microscopic observations were carried out by light microscopy and fluorescence microscopy, using a Orthoplan-type Leica microscope, with ×25 objective. The images were recorded with a Sony DXC 390P tri CCD camera and stored using the Leica IM1000 data archiving software. • The general morphology was observed on sections in paraffin after staining with Masson trichrome, Goldner variant according to procedure MO-H-157. […]

collagen I = assay: Staining and immunolabelling of skin explant sections: collagen I; assay type: cell-based, human; conditions: treated skin explant sections
Description: as §1, §2, §3
(§4) 4. Histological treatment • After fixation for 48 hours in buffered formol, the samples were dehydrated and embedded in paraffin using a Leica 1020 automatic dehydrator. They were embedded according to procedure MO-H-153 using a Leica EG 1160 coating station. Sections of 5 μm were prepared according to procedure MO-H-173 using a Minot-type microtome, Leica RM 2125 and mounted on Superfrost® histological glass slides.
(§5) 6. Staining and immunolabelling
(§6) Immunolabelling will be carried out on sections with the appropriate antibody. […]

collagen III = assay: Staining and immunolabelling of skin explant sections: collagen III; assay type: cell-based, human; conditions: treated skin explant sections
Description: as §1, §2, §3, §4, §5, §6

collagen VII = assay: Staining and immunolabelling of skin explant sections: collagen VII; assay type: cell-based, human; conditions: treated skin explant sections
Description: as §1, §2, §3, §4, §5, §6

[2] = test system: normal human epidermal keratinocytes; assay: Differential expression PCR arrays (RT-qPCR) of keratinocyte differentiation markers; assay type: cell-based; conditions: 10 μM
Description: (§7) The expression of the specific markers was evaluated by RT-qPCR (reverse transcription quantitative polymerase chain reaction) on messenger RNAs extracted from the cell lawns from each treatment. The transcriptomic profile contains 64 genes selected for their importance in keratinocyte differentiation. The PCR reactions (polymerase chain reactions) were carried out by quantitative PCR with the “Light Cycler” system (Roche Molecular System Inc.) according to the procedures recommended by the supplier. Normal human epidermal keratinocytes were incubated in the presence of compound 1 or a reference with calcium chloride. The expression of the specific markers was evaluated by RT-qPCR on the messenger RNAs extracted from the cell lawns from each treatment.

[3] = test system: HSPB1, heat shock protein beta-1; assay: RT-qPCR expression of HSPB1 in keratinocytes; assay type: cell-based, human; conditions: 10 μM
Description: as §7

interleukin-8 (IL-8) = assay: Release of IL-8 by NCTC-2544 keratinocytes stimulated by PMA; assay type: cell-based, human; conditions: NCTC-2544 stimulated by PMA
Description: The effects of compound 1 were evaluated on two routes of inflammation, the “chemokine” route and the “prostaglandin” route, by measuring the release of interleukin-8 (IL-8) and of prostaglandin E2 (PGE2) by a human keratinocyte line NCTC-2544 stimulated by phorbol-myristate acetate (PMA).

[4] = test system: normal human dermal fibroblasts; assay: Neosynthesis of sulphated GAGs ([35S]-sulphate incorporation) in dermal fibroblasts; assay type: cell-based; conditions: monolayer of normal human dermal fibroblasts
Description: The effects of this compound were evaluated on a monolayer of normal human dermal fibroblasts by measuring the neosynthesis of glycosaminoglycans designated as sulphated GAGs (incorporation of [^35S]-sulphate). […] This might explain the effect of dermal reinforcement already observed on skin explants ex vivo.

PPARα (h) = target: T1, PPARα (h) (Homo sapiens, UniProt Q07869); assay: PPARα agonist effect, coactivator Alpha screen; assay type: biochemical
T1 sequence (Q07869 1-468): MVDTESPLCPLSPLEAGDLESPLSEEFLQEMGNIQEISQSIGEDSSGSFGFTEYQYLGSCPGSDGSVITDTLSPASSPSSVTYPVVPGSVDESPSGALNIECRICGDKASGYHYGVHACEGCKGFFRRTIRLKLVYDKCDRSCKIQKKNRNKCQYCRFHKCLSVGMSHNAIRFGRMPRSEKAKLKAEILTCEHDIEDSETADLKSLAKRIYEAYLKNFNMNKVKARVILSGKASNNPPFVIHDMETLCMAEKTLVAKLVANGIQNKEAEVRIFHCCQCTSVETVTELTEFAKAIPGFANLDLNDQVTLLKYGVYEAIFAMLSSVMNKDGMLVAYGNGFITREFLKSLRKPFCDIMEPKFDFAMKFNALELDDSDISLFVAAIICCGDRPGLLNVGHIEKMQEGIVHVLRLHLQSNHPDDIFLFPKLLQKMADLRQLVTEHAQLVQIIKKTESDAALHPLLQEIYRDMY
Description: The agonist or antagonist activity of compound 1 on the PPAR receptors was tested by fluorescence techniques. • Material and Methods
The results are expressed as: • percentage of control specific agonist response (measured specific response/control specific agonist response)×100) and • percentage inhibition of the control specific agonist response (100−((measured specific response)/control specific agonist response)×100)) obtained in the presence of compound 1.
The EC50 values (concentration at which the maximum specific response is 50%) and the IC50 values (concentration at which the maximum control specific agonist response is inhibited by 50%) are determined by non-linear regression analysis of the concentration-response curves with a mean replicated value using adjustment of Hill's equation

## Oc1ccccc1CCOc1ccc(F)cc1 [Compound 1, 2-[2-(4-fluoro-phenoxy)-ethyl]-phenol]
[1]
  General morphology: epidermal structure and papillary dermis: very clear epidermal and dermal restructuring activity
Collagen I
  Collagen I in the papillary dermis: clear overexpression
Collagen III
  Collagen III in the papillary dermis: very slight densification
Collagen VII
  Collagen VII along the dermal-epidermal junction: moderate overexpression
[2]
  Effect on keratinocyte differentiation (conclusion): pro-differentiating effect
[2]; compared with calcium chloride at 1.5 mM
  Stimulation of expression of markers involved in lipid synthesis, antimicrobial defence, innate immunity and cell-cell interactions: less, but similar to calcium chloride at 1.5 mM
[3]
  Expression of the stress protein HSPB1: inhibition of expression
interleukin-8 (IL-8)
  Release of IL-8: without altering
[4]
  Neosynthesis of sulphated GAGs: stimulated the neosynthesis of sulphated GAGs, in a non-concentration-dependent fashion
PPARα (h); 10^−5 M
  % Control agonist response: 2%
PPARα (h); 10^−6 M
  % Control agonist response: 0%
PPARα (h); 10^−7 M
  % Control agonist response: −1%
PPARα (h); 10^−7 to 10^−5 M
  PPARα agonist activity (conclusion in words): not an agonist
